Measured values published in the NIST ThermoML archive (doi:10.1021/je060271a).
Numbers after ± are expanded uncertainties.

Settings: 303.14 K, Liquid, Vibrating tube method

CCCCCCC(=O)OCC(COC(=O)CCCCCC)(COC(=O)CCCCCC)COC(=O)CCCCCC [pentaerythritol tetraheptanoate]
Settings	mass density [kg/m3]
5095.7 kPa	973.9 ± 1.2
5116.9 kPa	974.1 ± 1.2
5138.3 kPa	974 ± 1.2
5164.1 kPa	974 ± 1.2
5185.5 kPa	974.1 ± 1.2
5207.3 kPa	974 ± 1.2
5229.7 kPa	974.1 ± 1.2
5256.1 kPa	974.1 ± 1.2
5277.9 kPa	974 ± 1.2
5304.9 kPa	974 ± 1.2
5328.1 kPa	974.1 ± 1.2
5350.7 kPa	974.1 ± 1.2
5374.3 kPa	974.1 ± 1.2
5402.1 kPa	974.2 ± 1.2
5425.6 kPa	974.1 ± 1.2
5450.7 kPa	974.3 ± 1.2
5475.8 kPa	974.1 ± 1.2
5504.5 kPa	974.2 ± 1.2
5528.9 kPa	974.2 ± 1.2
5554 kPa	974.3 ± 1.2
5583.9 kPa	974.3 ± 1.2
5609.1 kPa	974.3 ± 1.2
5634.4 kPa	974.3 ± 1.2
5665 kPa	974.3 ± 1.2
5690.9 kPa	974.2 ± 1.2
5717.2 kPa	974.3 ± 1.2
5749 kPa	974.4 ± 1.2
5776.5 kPa	974.3 ± 1.2
5804.6 kPa	974.3 ± 1.2
5832 kPa	974.4 ± 1.2
5860 kPa	974.4 ± 1.2
5888.5 kPa	974.4 ± 1.2
5922.7 kPa	974.5 ± 1.2
5951.6 kPa	974.3 ± 1.2
5980.6 kPa	974.5 ± 1.2
6015.7 kPa	974.6 ± 1.2
6045.3 kPa	974.5 ± 1.2
6075.7 kPa	974.4 ± 1.2
6106.1 kPa	974.5 ± 1.2
6142.6 kPa	974.5 ± 1.2
6174.1 kPa	974.6 ± 1.2
6207 kPa	974.5 ± 1.2
6238.7 kPa	974.6 ± 1.2
6270.8 kPa	974.6 ± 1.2
6309.5 kPa	974.6 ± 1.2
6342.4 kPa	974.7 ± 1.2
6375.9 kPa	974.7 ± 1.2
6416.1 kPa	974.8 ± 1.2
6447.8 kPa	974.8 ± 1.2
6476.3 kPa	974.7 ± 1.2
6510.3 kPa	974.7 ± 1.2
6539.5 kPa	974.8 ± 1.2
6568.7 kPa	974.8 ± 1.2
6598.1 kPa	974.9 ± 1.2
6633.7 kPa	974.8 ± 1.2
6664.4 kPa	974.9 ± 1.2
6695.2 kPa	974.8 ± 1.2
6725.8 kPa	974.8 ± 1.2
6762.4 kPa	974.9 ± 1.2
6793.3 kPa	975 ± 1.2
6825.6 kPa	975 ± 1.2
6857.2 kPa	975 ± 1.2
6895.7 kPa	975 ± 1.2
6928 kPa	975 ± 1.2
6961.5 kPa	975 ± 1.2
7001.6 kPa	975.1 ± 1.2
7035.6 kPa	975.2 ± 1.2
7070.4 kPa	975.2 ± 1.2
7104.5 kPa	975.1 ± 1.2
7139.2 kPa	975.2 ± 1.2
7181.2 kPa	975.2 ± 1.2
7216.8 kPa	975.2 ± 1.2
7253.9 kPa	975.3 ± 1.2
7291.4 kPa	975.3 ± 1.2
7336.6 kPa	975.2 ± 1.2
7375.1 kPa	975.4 ± 1.2
7414.5 kPa	975.3 ± 1.2
7451.6 kPa	975.3 ± 1.2
7469.5 kPa	975.4 ± 1.2
7494.9 kPa	975.4 ± 1.2
7522.2 kPa	975.3 ± 1.2
7549.5 kPa	975.4 ± 1.2
7582.3 kPa	975.4 ± 1.2
7609.7 kPa	975.5 ± 1.2
7637.3 kPa	975.6 ± 1.2
7671.1 kPa	975.5 ± 1.2
7698.9 kPa	975.6 ± 1.2
7728.1 kPa	975.5 ± 1.2
7757.4 kPa	975.5 ± 1.2
7793.5 kPa	975.6 ± 1.2
7823.2 kPa	975.6 ± 1.2
7858.2 kPa	975.7 ± 1.2
7882.7 kPa	975.7 ± 1.2
7904.3 kPa	975.7 ± 1.2
7925.9 kPa	975.6 ± 1.2
7946.9 kPa	975.6 ± 1.2
7972.8 kPa	975.7 ± 1.2
7994 kPa	975.6 ± 1.2
8016.3 kPa	975.8 ± 1.2
8042.7 kPa	975.7 ± 1.2
8064.3 kPa	975.8 ± 1.2
8087 kPa	975.8 ± 1.2
8113.3 kPa	975.8 ± 1.2
8135.7 kPa	975.8 ± 1.2
8158.3 kPa	975.8 ± 1.2
8181.6 kPa	975.8 ± 1.2
8209 kPa	975.8 ± 1.2
8232.1 kPa	975.9 ± 1.2
8255.4 kPa	976 ± 1.2
8283 kPa	975.9 ± 1.2
8305.8 kPa	975.8 ± 1.2
8328.7 kPa	975.9 ± 1.2
